Some test systems named below: HOP-18 NSCLC; SNB-78 CNS; MDA-MB-435; MCF7 breast; M19-MEL melanoma; BT-549 breast; DMS 114 small cell lung; LXFL 529 NSCLC; T-47D breast; DMS 273 small cell lung.
Holding throughout (assay): inhibition of tumour cell growth, NCI panel, 48 h

“And” between values parts separate entries of the source, which are not always exact repeats. Identical values can stand only once.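 Cultured in 96-well plates, cells were exposed to test compound for 48 hours across five concentrations. Here, GI50 denotes the concentration required for 50% inhibition of growth. TGI: total growth inhibition.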 Bounds are passed on as bounds.

As for `COc1ccc(/C=C\c2cc(OC)c(OC)c(OC)c2)c(O)c1O`, the GI50 is 109 µM in the experiment on HOP-18 NSCLC; 1.86 µM with SNB-78 CNS; 0.05 µM in the experiment with MCF7 breast; 1.42 µM in the experiment on M19-MEL melanoma; 0.196 µM in the experiment on DMS 114 small cell lung; 0.303 µM with DMS 273 small cell lung. Besides, the TGI is 185 µM in the experiment on HOP-18 NSCLC; > 89.6 µM and 48.5 µM in the experiment on SNB-78 CNS; 0.0163 µM in the experiment on MDA-MB-435; 17.8 µM and 11.2 µM in the experiment on M19-MEL melanoma; 32.3 µM in the experiment with BT-549 breast; 3.92 µM and 0.568 µM in the experiment on DMS 114 small cell lung. The TGI was 12.8 µM with LXFL 529 NSCLC, more than 79.7 µM with T-47D breast and 63.1 µM with DMS 273 small cell lung.
`CN(O)C(=S)c1ccccc1`: the TGI was more than 100 µM in the experiment with HOP-18 NSCLC; more than 100 µM in the experiment with SNB-78 CNS; more than 100 µM with MDA-MB-435; more than 100 µM in the experiment on MCF7 breast; 4.68 µM in the experiment on M19-MEL melanoma; more than 100 µM in the experiment on BT-549 breast. Further, the TGI is 4.12 µM in the experiment on DMS 114 small cell lung, more than 23 µM in the experiment with LXFL 529 NSCLC, more than 100 µM with T-47D breast and 4.03 µM in the experiment on DMS 273 small cell lung.
For the molecule `CC(=O)NC(CCCCN(Cc1ccccc1)C(=O)N(CCCl)N=O)C(=O)NCc1ccccc1` (stereo not given), the TGI in the experiment with HOP-18 NSCLC was 87.5 µM; in the experiment on SNB-78 CNS, more than 100 µM; with MDA-MB-435 it was more than 100 µM; in the experiment on MCF7 breast, more than 100 µM; in the experiment on M19-MEL melanoma it was more than 100 µM; in the experiment with BT-549 breast it was 65.8 µM. The TGI is more than 100 µM with DMS 114 small cell lung, more than 100 µM in the experiment on LXFL 529 NSCLC, 36.7 µM in the experiment with T-47D breast and more than 100 µM in the experiment with DMS 273 small cell lung.
As to `O=C1C(=O)N(c2cccc(C(F)(F)F)c2)C(=O)C(=O)C1c1nc2ccccc2s1`, the TGI in the experiment with HOP-18 NSCLC, in the experiment on SNB-78 CNS, with MDA-MB-435, in the experiment on MCF7 breast, in the experiment on M19-MEL melanoma and with BT-549 breast was more than 100 µM each time. Also, the TGI with DMS 114 small cell lung, in the experiment with LXFL 529 NSCLC, with T-47D breast and in the experiment with DMS 273 small cell lung was more than 100 µM throughout.
